In one data set the target is T1, rCB-1 (Rattus norvegicus, UniProt P20272).
T1 construct: purchased Applied Cell Sciences, Rockville, Md; host or cells: CHO cells (membranes)
The data set is described as follows: rCB1-CHO antagonist mode SPA GTP-γ-35S binding assay. The format is biochemical. To be noted: rat CB-1 CHO membranes, antagonist mode vs methanandamide; read-out: rCB-1 SPA GTPγS CHO Membrane Antagonist Kb. How it is done: (§1) Compounds of the present invention may be tested for functional activity at the CB-1 and CB-2 receptors in both agonist and antagonist modes using SPA (Scintillation Proximity Assay) based GTP-γ-^35S binding assays. All assay components are prepared in assay buffer (20 mM HEPES, 100 mM NaCl, 5 mM MgCl2, pH 7.4) at room temperature. Semi-log dilutions of test compound are prepared in assay buffer containing BSA (0.125% final conc.) for the agonist mode assays. For the antagonist mode assays, test compounds are prepared in the same manner but also include an 80% efficacious dose of a full agonist (methanandamide). GTP-γ^35S binding for the antagonist assay may be measured in a 96 well format using a modification of an antibody capture technique previously described. (DeLapp, N W, et al. (1999) J Pharmacol Exp Ther 289:946-955.) The CB-2 receptor agonist activity may be measured using a similar method using hCB2-Sf9 membranes. The CB-1 receptor agonist activity may be measured using a whole membrane capture technique using hCB1-CHO membranes. All incubations are done at room temperature.
(§2) hCB1-CHO and rCB1-CHO Antagonist Assays:
hCB1-CHO or rCB1-CHO membranes (Applied Cell Sciences, Rockville, Md.) and GDP (1 μM final) are added to ice cold assay buffer and homogenized. […] Plates are then centrifuged at 700×g for 10 min. and the radioactivity counted.
Data are analyzed as follows: Background is subtracted from all wells. […] Percent antagonist inhibition is calculated by first normalizing the data to the signal generated by a saturating concentration of the full agonist (methanandamide). Then the data are analyzed using a 4-parameter logistic reduced fit (Activity Base™ and XLFit3™ from IDBS, Emeryville, Calif.). Kb values are determined using a modification of the Cheng-Prusoff relationship: Kb=IC50/(1+[agonist]/EC50), where “IC50” is determined from a four parameter fit of displacement curves, “[agonist]” is the agonist challenge concentration (nM), and “EC50” is determined from a four parameter fit of a full agonist concentration response curve (Cheng and Prusoff 1973). […]
For orientation: Binding of GTPγS marks nucleotide exchange on a G protein.

Data set [1] concerns the target T2, hCB-1 (Homo sapiens, UniProt P21554).
T2 construct: purchased Applied Cell Sciences, Rockville, Md; host or cells: CHO cells (membranes)
The data set is described as follows: hCB1-CHO antagonist mode SPA GTP-γ-35S binding assay. In kind it is biochemical. The note with it: human CB-1 CHO membranes, antagonist mode vs methanandamide; read-out: hCB-1 SPA GTPγS CHO Membrane Antagonist Kb. How it is done:
as §1, §2
hCB1-CHO or rCB1-CHO membranes (Applied Cell Sciences, Rockville, Md.) and GDP (1 μM final) are added to ice cold assay buffer and homogenized. Diluted compounds, GTP-γ-^35S (500 nM final conc.) and membranes are added to wells of an assay plate and incubated for 30 min. at room temperature. Next, a mixture containing Nonidet P40 detergent (0.2% final conc.), rabbit polyclonal IgG Gαi-3 antibody (provided by Covance, Princeton, N.J.), and 1.25 mg anti-rabbit antibody scintillation proximity assay beads (GE Healthcare, Piscataway, N.J.) is added. The plates are sealed, vortexed, and incubated for an additional 2 hr. Plates are then centrifuged at 700×g for 10 min. and the radioactivity counted.
Data are analyzed as follows: Background is subtracted from all wells. […] Percent antagonist inhibition is calculated by first normalizing the data to the signal generated by a saturating concentration of the full agonist (methanandamide). Then the data are analyzed using a 4-parameter logistic reduced fit (Activity Base™ and XLFit3™ from IDBS, Emeryville, Calif.). Kb values are determined using a modification of the Cheng-Prusoff relationship: Kb=IC50/(1+[agonist]/EC50), where “IC50” is determined from a four parameter fit of displacement curves, “[agonist]” is the agonist challenge concentration (nM), and “EC50” is determined from a four parameter fit of a full agonist concentration response curve (Cheng and Prusoff 1973). Mean Kb values are calculated as a mean of at least three independent determinations±standard error of the mean (SEM). […]

For data set [2], the target named is T3, hCB-2 (Homo sapiens, UniProt P34972).
T3 construct: purchased Perkin Elmer, Boston, Mass; host or cells: Sf9 insect cells (membranes)
T3 sequence (P34972 whole entry): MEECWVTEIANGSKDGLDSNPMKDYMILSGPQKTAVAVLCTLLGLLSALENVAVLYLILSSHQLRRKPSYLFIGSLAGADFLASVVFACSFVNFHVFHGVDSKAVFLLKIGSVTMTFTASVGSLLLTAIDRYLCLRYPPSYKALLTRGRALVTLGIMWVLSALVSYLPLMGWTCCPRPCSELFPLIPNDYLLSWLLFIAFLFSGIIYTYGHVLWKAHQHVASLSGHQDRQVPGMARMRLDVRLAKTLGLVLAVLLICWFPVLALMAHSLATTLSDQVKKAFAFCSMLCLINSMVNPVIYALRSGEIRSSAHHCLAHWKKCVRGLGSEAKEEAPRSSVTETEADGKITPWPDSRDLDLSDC
The data set is described as follows: hCB2-Sf9 antagonist mode SPA GTP-γ-35S binding assay. The format is biochemical. The note with it: human CB-2 Sf9 membranes, antagonist mode vs methanandamide; read-out: hCB-2 SPA GTPγS Sf9 Membrane Antagonist Kb. On the procedure:
as §1
hCB1-Sf9 and hCB2-Sf9 antagonist Assays:
hCB1-5f9 and hCB2-5f9 membranes (Perkin Elmer, Boston, Mass.) are prepared essentially as above with 1 μM (final conc.) GDP for hCB1-5f9 and 0.05 μM (final conc.) GDP for hCB2-5f9. The assay is run essentially as described for the CHO membranes above. Diluted membranes are pre-incubated with test compound for 15 min., which is followed by addition of GTP-γ-^35S and a further 35 min. incubation. Nonidet P40 and anti-Gi-antibody are added sequentially with a 15 min. incubation after each addition. The SPA beads are then added, the plates are sealed and vortexed, and then incubated at room temperature for 1 hr.
Data are analyzed as follows: Background is subtracted from all wells. Percent agonist efficacy is determine by normalizing agonist/inverse agonist dose response data to the response obtained for a full agonist (methanandamide). Percent antagonist inhibition is calculated by first normalizing the data to the signal generated by a saturating concentration of the full agonist (methanandamide). Then the data are analyzed using a 4-parameter logistic reduced fit (Activity Base™ and XLFit3™ from IDBS, Emeryville, Calif.). Kb values are determined using a modification of the Cheng-Prusoff relationship: Kb=IC50/(1+[agonist]/EC50), where “IC50” is determined from a four parameter fit of displacement curves, “[agonist]” is the agonist challenge concentration (nM), and “EC50” is determined from a four parameter fit of a full agonist concentration response curve (Cheng and Prusoff 1973). Mean Kb values are calculated as a mean of at least three independent determinations±standard error of the mean (SEM). […]

For data set [3], the target named is T2, hCB-1. Description: hCB1-CHO agonist mode SPA GTP-γ-35S binding assay. In kind it is biochemical. To be noted: for hCB-1 SPA GTPγS CHO Membrane Agonist % Relative Efficacy: normalized to full agonist methanandamide, below zero = inverse agonist. On the procedure:
as §1
hCB1-CHO membrane, GDP (1 μM final conc.), and saponin (10 ng/mL final conc., Sigma, St Louis, Mo.) are combined and prepared on ice as for the antagonist assays, above. Diluted test compounds, GTP-γ-^35S (500 nM final conc.) and membranes are combined in the assay plate and incubated for 30 min. Then 1 mg/well Wheatgerm Agglutinin SPA beads (GE Healthcare, Piscataway, N.J.) are added, plates are sealed and vortexed and incubate for 1 hr. before spinning and counting in the same fashion as for the antagonist assays, above.
(§3) Data are analyzed as follows: Background is subtracted from all wells. Percent agonist efficacy is determine by normalizing agonist/inverse agonist dose response data to the response obtained for a full agonist (methanandamide). Percent antagonist inhibition is calculated by first normalizing the data to the signal generated by a saturating concentration of the full agonist (methanandamide). Then the data are analyzed using a 4-parameter logistic reduced fit (Activity Base™ and XLFit3™ from IDBS, Emeryville, Calif.). Kb values are determined using a modification of the Cheng-Prusoff relationship: Kb=IC50/(1+[agonist]/EC50), where “IC50” is determined from a four parameter fit of displacement curves, “[agonist]” is the agonist challenge concentration (nM), and “EC50” is determined from a four parameter fit of a full agonist concentration response curve (Cheng and Prusoff 1973). Mean Kb values are calculated as a mean of at least three independent determinations±standard error of the mean (SEM). (Cheng Y C and Prusoff W H. (1973), Biochem Pharmacol 22:3099-3108.) Exemplified compounds are found to be potent CB-1 inverse agonists (Kb≦10 nM, typically <2 nM) and to be selective over the CB-2 receptor (Kb CB-2/Kb CB-1>500, typically >1000).

Data set [4] deals with T3, hCB-2. The data set is described as follows: hCB2-Sf9 agonist mode SPA GTP-γ-35S binding assay. The format is biochemical. The note with it: human CB-2 Sf9 membranes, read-out: hCB-2 SPA GTPγS Sf9 Membrane Agonist Relative EC50. How it is done: as §1
The hCB2-5f9 assay is run essentially as for the hCB1-sf9 and hCB2-sf9 antagonist assays above, with no challenging agonist added. 1 μM (final conc.) GDP is added to the membrane solution and nonidet P40, anti-Gi-antibody, and SPA bead are added together in a cocktail.
as §3

The subject of another data set is CYP3A. Description: Human CYP fingerprinting, ketoconazole inhibitor. In kind it is in vitro ADME. The note with it: 4 μM, human liver microsomes, 30 min, ketoconazole 10 μM. How it is done:
(§4) CYP fingerprinting is well established technique and is used as an indication of potential risk of drug-drug interactions in the pharmaceutical sciences. Compounds of the present invention may be assayed by well known methods, essentially as follows: Compounds are incubated at 37° C. at a final concentration of 4 μM with pooled, mixed gender, human liver microsomes and 1 mM NADPH ([…]) (final conc.) for 0 and 30 min. without any CYP inhibitor and with each CYP inhibitor in separate incubations for 30 min. Each inhibitor is specific for an individual cytochrome P450. The specific inhibitors used for CYPs 2C9, 2D6 and 3A were sulfaphenazole, quinidine and ketoconazole, respectively. Ketoconazole (CYP3A) is made up at 25 mM in DMSO and then diluted in buffer to a final concetration of 10 μM. Quinidine (CYP2D6) is made up at 5 mM in 50/50 acetonitrile/water and then diluted in buffer to a final concetration of 10 μM. Sulfaphenazole (CYP2C9) is made up at 100 mM in DMSO and then diluted in buffer to a final concetration of 5 μM. Samples are analyzed by LC-MS in positive or negative electrospray mode using a Waters Acquity Ultra Performance LC coupled to a MicroMass Q-T of-2 mass spectrometer.
(§5) Data are analyzed using MetaboLynx™ version 4.1. With inhibitor present, a reduction in metabolite peak area of less than 30% (relative to the uninhibited control incubation) receives a designation of low risk of Drug Drug Interaction (DDI), a reduction in peak area between 30% and 70% receives a moderate risk of DDI and a reduction of more than 70% receives a high risk of DDI.
A general note: Microsomes from liver hold many membrane-bound enzymes, among them those of drug oxidation.

A further data set addresses T4, CYP2D6 (Homo sapiens, UniProt P10635).
T4 construct: pooled, mixed gender, human liver microsomes; from tissue; host or cells: pooled, mixed gender human liver microsomes
Description: Human CYP fingerprinting, quinidine inhibitor. The format is in vitro ADME. To be noted: 4 μM, human liver microsomes, 30 min, quinidine 10 μM. On the procedure: as §4, §5

The target in a further data set is T5, CYP2C9 (Homo sapiens, UniProt P11712).
T5 construct: pooled, mixed gender, human liver microsomes; from tissue; host or cells: pooled, mixed gender human liver microsomes
T5 sequence (P11712 whole entry): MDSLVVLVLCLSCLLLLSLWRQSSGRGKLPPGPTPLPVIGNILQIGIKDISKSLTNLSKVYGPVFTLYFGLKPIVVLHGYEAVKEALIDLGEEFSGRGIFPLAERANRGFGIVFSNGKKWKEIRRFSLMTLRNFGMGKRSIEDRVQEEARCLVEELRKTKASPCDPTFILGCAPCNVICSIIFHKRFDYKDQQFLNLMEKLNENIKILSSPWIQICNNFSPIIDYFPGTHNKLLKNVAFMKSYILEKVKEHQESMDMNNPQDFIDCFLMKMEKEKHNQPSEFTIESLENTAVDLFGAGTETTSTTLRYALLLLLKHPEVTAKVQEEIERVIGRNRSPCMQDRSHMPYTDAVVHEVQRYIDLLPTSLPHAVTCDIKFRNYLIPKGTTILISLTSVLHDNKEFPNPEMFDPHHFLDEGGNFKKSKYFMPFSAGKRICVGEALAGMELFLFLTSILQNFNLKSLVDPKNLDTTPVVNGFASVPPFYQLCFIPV
The data set is described as follows: Human CYP fingerprinting, sulfaphenazole inhibitor. In kind it is in vitro ADME. The note with it: 4 μM, human liver microsomes, 30 min, sulfaphenazole 5 μM. On the procedure: as §4, §5

T2 sequence (P21554 whole entry): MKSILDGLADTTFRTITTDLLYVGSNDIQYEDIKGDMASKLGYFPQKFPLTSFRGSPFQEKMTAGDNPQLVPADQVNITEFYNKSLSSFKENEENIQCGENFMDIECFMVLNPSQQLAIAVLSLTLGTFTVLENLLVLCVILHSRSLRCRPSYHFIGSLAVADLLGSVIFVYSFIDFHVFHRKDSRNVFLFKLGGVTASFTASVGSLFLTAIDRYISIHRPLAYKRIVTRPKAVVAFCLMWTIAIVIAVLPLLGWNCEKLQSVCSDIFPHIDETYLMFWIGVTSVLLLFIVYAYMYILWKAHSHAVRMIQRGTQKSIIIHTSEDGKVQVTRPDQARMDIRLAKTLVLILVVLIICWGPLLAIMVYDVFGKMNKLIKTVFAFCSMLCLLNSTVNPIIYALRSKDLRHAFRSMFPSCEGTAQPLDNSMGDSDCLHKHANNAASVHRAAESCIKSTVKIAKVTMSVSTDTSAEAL
T1 sequence (P20272 whole entry): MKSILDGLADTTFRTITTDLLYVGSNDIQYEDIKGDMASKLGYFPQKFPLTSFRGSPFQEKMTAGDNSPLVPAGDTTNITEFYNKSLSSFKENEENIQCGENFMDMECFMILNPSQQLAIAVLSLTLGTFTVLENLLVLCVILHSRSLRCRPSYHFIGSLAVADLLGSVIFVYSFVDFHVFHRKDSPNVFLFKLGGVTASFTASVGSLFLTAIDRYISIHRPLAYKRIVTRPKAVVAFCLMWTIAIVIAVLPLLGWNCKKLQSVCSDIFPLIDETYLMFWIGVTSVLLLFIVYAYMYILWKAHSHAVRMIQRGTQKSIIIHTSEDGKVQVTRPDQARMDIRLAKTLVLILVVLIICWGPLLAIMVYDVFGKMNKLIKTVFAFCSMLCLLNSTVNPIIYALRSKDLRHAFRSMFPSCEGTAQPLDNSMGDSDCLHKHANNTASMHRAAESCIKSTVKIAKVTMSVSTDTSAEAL
T4 sequence (P10635 whole entry): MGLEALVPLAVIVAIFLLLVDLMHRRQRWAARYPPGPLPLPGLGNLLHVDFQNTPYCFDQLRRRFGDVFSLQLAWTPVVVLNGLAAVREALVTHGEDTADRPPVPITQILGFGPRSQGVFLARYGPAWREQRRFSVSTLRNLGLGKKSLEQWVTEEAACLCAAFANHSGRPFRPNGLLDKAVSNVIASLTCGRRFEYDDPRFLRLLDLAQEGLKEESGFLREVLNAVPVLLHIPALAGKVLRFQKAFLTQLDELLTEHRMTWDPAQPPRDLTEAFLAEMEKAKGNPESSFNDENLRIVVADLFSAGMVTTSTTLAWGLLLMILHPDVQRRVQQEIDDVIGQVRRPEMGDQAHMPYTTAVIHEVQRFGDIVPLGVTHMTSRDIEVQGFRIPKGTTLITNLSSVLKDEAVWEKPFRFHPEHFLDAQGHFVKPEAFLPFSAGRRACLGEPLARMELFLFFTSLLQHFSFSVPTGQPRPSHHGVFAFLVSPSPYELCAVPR

Regarding `CC(C)(N[C@@H]1C[C@H](c2cccc(F)c2)N(c2ccc(OC(F)(F)F)cc2)C1=O)c1ccnc(C(F)(F)F)n1` [Example 3, (3R,5R)-3-[1-Methyl-1-(2-trifluoromethyl-pyrimidin-4-yl)-ethylamino]-5-(3-fluoro-phenyl)-1-(4-trifluoromethoxy-phenyl)-pyrrolidin-2-one], the Kb on rCB-1 was 0.195 nM; on hCB-1 [1] it was 0.916 nM; at hCB-2 [2] it was 397 nM. Further, the EC50 amounted to 1.11 nM on hCB-1 [3] (human CB-1 CHO membranes, agonist mode (inverse agonism), read-out: hCB-1 SPA GTPγS CHO Membrane Agonist Relative EC50 inverse) and 379 nM on hCB-2 [4]. Moreover, the “hCB-1 SPA GTPγS CHO Membrane Agonist % Relative Efficacy” value at hCB-1 [3] is −107%. Also, in the data set on CYP3A, the “Risk of Drug Drug Interaction (DDI) CYP3A” value is listed as “low (a reduction in metabolite peak area of less than 30% (relative to the uninhibited control incubation) receives a designation of low risk of Drug Drug Interaction (DDI))”. Further, at CYP2D6, the “Risk of Drug Drug Interaction (DDI) CYP2D6” value is “low (a reduction in metabolite peak area of less than 30% (relative to the uninhibited control incubation) receives a designation of low risk of Drug Drug Interaction (DDI))”. Also, the “Risk of Drug Drug Interaction (DDI) CYP2C9” value on CYP2C9 is “low (a reduction in metabolite peak area of less than 30% (relative to the uninhibited control incubation) receives a designation of low risk of Drug Drug Interaction (DDI))”.
Take `CC(C)(N[C@@H]1C[C@H](c2cccc(OC(F)(F)F)c2)N(c2ccc(C(F)(F)F)cc2)C1=O)c1ccnc(C(F)(F)F)n1` [Example 1, (3R,5R)-3-[1-Methyl-1-(2-trifluoromethyl-pyrimidin-4-yl)-ethylamino]-5-(3-trifluoromethoxy-phenyl)-1-(4-trifluoromethyl-phenyl)-pyrrolidin-2-one]: the antagonist equilibrium constant (Kb) at rCB-1 was 0.177 nM; on hCB-1 [1], 0.895 nM; at hCB-2 [2], greater than 8710 nM. The “hCB-1 SPA GTPγS CHO Membrane Agonist % Relative Efficacy” value on hCB-1 [3] was −99.3%. The EC50 on hCB-2 [4] is greater than 8710 nM. For the same molecule, the “Risk of Drug Drug Interaction (DDI) CYP2C9” value at CYP2C9 is “low (a reduction in metabolite peak area of less than 30% (relative to the uninhibited control incubation) receives a designation of low risk of Drug Drug Interaction (DDI))”.

In general, Kb refers to the equilibrium dissociation constant of an antagonist, usually derived from a functional assay. Usually EC50 stands for the midpoint of the concentration-response curve.
